Experimental findings from patent US6388122B1, “Tryptase inhibitor and novel guanidino derivatives” (Ono Pharmaceutical Co., Ltd., priority 1996, dated 2002) are described below.

Counter-ions that a name gives are not always drawn.

For series [1], the target named is T1, Tryptase purified from the human lungs.
T1 construct: Tryptase was purified from the human lungs in accordance with the method of T. J. Smithetal. described in J. Biol. Chem., 259, 11046 (1984)
Nature of the series: Tryptase inhibitory activity (Boc-Phe-Ser-Arg-MCA fluorescence). The class given is biochemical. Conditions: human lung tryptase, pH 7.5, 37° C., 5 minutes incubation, substrate Boc-Phe-Ser-Arg-MCA. The protocol:
Tryptase was purified from the human lungs in accordance with the method of T. J. Smithetal. described in J. Biol. Chem., 259, 11046 (1984). The enzyme purified in the concentration of 25.7 U/ml was diluted 10 times with 100 mM Tris/hydrochloride buffer (pH 7.5) at use. The enzyme solution prepared above (5 μl) was mixed with 100 mM Tris/hydrochloride buffer (pH 7.5, 500 μl) and the aqueous solution of the subject compound in various concentrations or water (5 μl), and the resulting mixture was incubated at 37° C. for 5 minutes. To the reaction mixture was added 20 mM Boc-Phe-Ser-Arg-MCA (2.5 μl), and elevation in fluorescence for a minute was determined at Ex=370 nm, Em=460 nm. The elevation in fluorescence in the absence of the subject compound was defined as 100% to obtain the percentage (%) in the existence of the sample compound and calculate the value of IC50.

The target in series [2] is T2, PLA2 (derived from pig pancreas) (Sus scrofa, UniProt P00592).
T2 construct: PLA2 (derived from pig pancreas); from tissue; host or cells: pig pancreas
The series can be described thus: PLA2 inhibitory activity (10PY-PC fluorescence). In kind it is biochemical. Conditions: pig pancreas PLA2, substrate 10PY-PC, pH 7.5. The protocol: A reaction mixture was prepared which contained 50 mM Tris/hydrochloride buffer (pH 7.5, 874 μl: 100 mM sodium chloride and 1 mM EDTA contained), 1 M calcium chloride (6 μl), 1% bovine serum albumin (10 μl) and 2.5 mM 10PY-PC (10 μl). To the reaction mixture were added the subject compound in various concentrations or water (50 μl) and a 10 mU/ml PLA2 (derived from pig pancreas) solution (50 μl), and the intensity of fluorescence was determined at Ex=345 nm and Em=396 nm. The intensity of fluorescence in the absence of the subject compound was defined as 100% to obtain the percentage (%) In the existence of the sample compound and calculate the value of IC50.

For series [3], the target named is T3, trypsin (derived from bovine pancreas) (Bos taurus, UniProt P00760).
T3 construct: trypsin (derived from bovine pancreas); from tissue; host or cells: bovine pancreas
T3 sequence (P00760 24-246): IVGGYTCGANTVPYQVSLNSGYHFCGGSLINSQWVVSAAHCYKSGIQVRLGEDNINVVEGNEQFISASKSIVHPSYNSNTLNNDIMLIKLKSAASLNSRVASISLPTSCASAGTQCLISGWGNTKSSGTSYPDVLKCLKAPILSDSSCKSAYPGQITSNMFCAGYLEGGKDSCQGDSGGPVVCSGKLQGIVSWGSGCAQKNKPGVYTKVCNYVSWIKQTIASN
The series can be described thus: Trypsin inhibitory activity (BAPNA absorbance). In kind it is biochemical. As to conditions: substrate BAPNA, pH 8.0, 30° C. The procedure:
To 0.2 M HEPES/sodium hydroxide buffer (pH 8.0, 100 μl) and distilled water (640 μl) were added the subject compound in various concentrations or water (10 μl) and a 80 mU/ml trypsin (derived from bovine pancreas) solution (50 μl), and the resulting mixture was allowed to preincubation at 30° C. for a minute. To the resulting reaction mixture, 2.5 mM BAPNA (200 μl) was added, incubation was made at 30° C., and the absorbance at 405 nm was determined. The absorbance in the absence of the subject compound was defined as 100% to obtain the percentage (%) in the existence of the sample compound and calculate the value of IC50.

The test system of series [4] is bleomycin-induced rat pulmonary fibrosis. Nature of the series: Effect on bleomycin-induced rat pulmonary fibrosis. The class given is in vivo. Conditions: 10 mg/kg oral once a day for 14 days, lungs taken 15 days after bleomycin. The procedure:
Under anesthetization with pentobarbital, bleomycin hydrochloride (0.9 mg/0.3 ml) was given to rats by endotracheal administration to induce impairment. The lungs were taken out 15 days after inducing, the effect on pulmonary fibrogenesis was evaluated using the pulmonary […] content as the indication. The aqueous solution of the subject compound In concentration of 10 mg/kg was repeatedly given by oral administeration once a day for 14 days, initially administered 10 hours after the administration of bleomycin.

Series [5] in a line: Toxicity (LD50, intravenous, male mice). As to conditions: mouse, in vivo, intravenously administered to male mice. An excerpt:
Extremely low toxicity has been confirmed in each of the active ingredients and nontoxic salts and nontoxic acid addition salts thereof encompassed in the present invention. […] Accordingly, any of the active substances encompassed in the present invention can be considered to be adequately safe and suitable for use as pharmaceuticals.

The subject of series [6] is carbon tetrachloride-induced rat chronic hepatopathy. Nature of the series: Effect on carbon tetrachloride-induced rat chronic hepatopathy. Conditions: 3 mg/kg oral once a day for 8 weeks starting 5 weeks after carbon tetrachloride, liver taken at 12 weeks. In kind it is in vivo. The protocol:
Carbon tetrachloride (1.5 mg/kg) was repeatedly given to rats by subctaneous administration twice a week for 12 weeks to induce impairment. The liver was taken out 12 weeks after inducing, the effect on hepatic fibrogenesis was evaluated using the hepatic […] content as the indication. The aqueous solution of the subject compound in concentration of 3 mg/kg was repeatedly given by oral administeration once a day for 8 weeks, initially administered 5 weeks after the administration of carbon tetrachloride.

T2 sequence (P00592 23-146): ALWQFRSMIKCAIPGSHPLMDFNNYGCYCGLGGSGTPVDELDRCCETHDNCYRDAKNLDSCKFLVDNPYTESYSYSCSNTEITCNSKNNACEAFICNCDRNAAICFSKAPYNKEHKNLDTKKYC

With `N=C(N)c1ccc(OC(=O)c2ccc(/C=C/C(=O)N3CCN(Cc4ccccc4)CC3)cc2)cc1` [Hydrochloride of compound 19-2, p-(p-amidinophenoxycarbonyl)cinnamic acid N-(4-phenyl-methyl)piperadinylamide], in series [1], the IC50 was found to be 0.21 nM.

For `CCCCCCN(CC(=O)OCC)C(=O)/C(C)=C/c1ccc(C(=O)Oc2ccc(C(=N)N)cc2)cc1` [Acetate of compound 22, p-(p-amidlnophenoxycarbonyl)-α-methylcinnamic acid N-ethoxycarbonylmethyl-N-hexylamide], the IC50 in series [1] amounted to 0.24 nM.

As for `CCOC(=O)CN(C(=O)/C(C)=C/c1ccc(C(=O)Oc2ccc(NC(=N)N)cc2)cc1)c1ccccc1` [Hydrochloride of compound 6, p-(p-Guanidinophenoxycarbony) -α-methylcinnamic Acid N-phenyl-N-ethoxycarbonylmethylamide Hydrochloride], the values for the 50% inhibitory concentration (IC50) in series [2] and in series [3] were 5000 nM and 110 nM, respectively.

`CCOC(=O)CN(C(=O)c1ccc(C(=O)Oc2ccc(NC(=N)N)cc2)cc1)c1ccccc1` [Methanesulfonate of compound 14, p-(p-guanidinophenoxycarbonyl)benzoic acid N-phenyl-N-ethoxycarbonylmethylamide]: the IC50 in series [1] came to 11.2 nM.

Consider `C#CCN(CC(=O)OCC)C(=O)/C(C)=C/c1ccc(C(=O)Oc2ccc(C(=N)N)cc2)cc1` [Acetate of compound 18, p-(p-amidinophenoxycarbonyl)-α-methylcinnamic acid N-propargyl-N-ethoxycarbonylmethylamide], for which, in series [1], the concentration for half-maximal inhibition (IC50) came out at 2.39 nM.

On to `CCOC(=O)CN(C(=O)/C=C/c1ccc(C(=O)Oc2ccc(NC(=N)N)cc2)cc1)c1ccccc1` [Hydrochloride of compound 5, p-(p-Guanidinophenoxycarbonyl)cinnamic Acid N-phenyl-N-ethoxycarbonylmethylamide Hydrochloride], for which the midpoint of inhibition in series [2], the IC50, lay at 8000 nM.

In series [3], `CCOC(=O)[C@@H]1CCCN1C(=O)/C=C/c1ccc(C(=O)Oc2ccc(NC(=N)N)cc2)cc1` [Acetate of compound 10, p-(p-Guanidinophenoxycarbonyl)cinnamic Acid N-(2-(S)-ethoxycarbonyl)pyrrolidinylamide Acetate] displayed an IC50 of 180 nM.

The compound `CCOC(=O)CC(CC(=O)OCC)N(C(=O)/C(C)=C/c1ccc(C(=O)Oc2ccc(C(=N)N)cc2)cc1)C1CCCCC1` [Acetate of compound 24] registered an IC50 in series [1] of 1.14 nM.

In series [1], `C=CCN(CC(=O)OCC)C(=O)/C(C)=C/c1ccc(C(=O)Oc2ccc(C(=N)N)cc2C(=O)OC)cc1` [Acetate of compound 23, p-(4-amidino-2-methoxycarbonylphenoxycarbonyl)-α-methylcinnamic acid N-allyl-N-ethoxycarbonylmethylamide] showed an IC50 of 0.46 nM.

In series [3], `CCOC(=O)C1CCCCN1C(=O)/C=C/c1ccc(C(=O)Oc2ccc(NC(=N)N)cc2)cc1` (stereo not shown) [Acetate of compound 7, p-(p-Guanidinophenoxycarbonyl)cinnamic Acid N-(2-ethoxcarbonyl)piperidlnylamide acetate] came in with an IC50 of 180 nM.

`CCOC(=O)CCN(CCCOC)C(=O)/C(C)=C/c1ccc(C(=O)Oc2ccc(C(=N)N)cc2)cc1` [Hydrochloride of compound 25, p-(p-amidinophenoxycarbonyl)-α-methylcinnamic acid N-2-ethoxycarbonylethyl-N-3-methoxypropylamide] yielded an IC50 in series [1] of 1.38 nM.

Take `C=CCN(CC(=O)OCC)C(=O)/C(C)=C/c1ccc(C(=O)Oc2ccc(NC(=N)N)cc2)cc1` [Acetate of compound 13, p-(p-Guanidinophenoxycarbonyl)-α-methylcinnamic Acid N-allyl-N-ethoxycarbonylmethylamide Acetate]: the IC50 is 5 nM in series [1] and 160 nM in series [3].

For the compound `C=CCN(CC(=O)O)C(=O)/C(C)=C/c1ccc(C(=O)Oc2ccc(C(=N)N)cc2)cc1` [Methanesulfonate of compound 17, p-(p-amidinophenoxycarbonyl)-α-methylcinnamic acid N-allyl-N-carboxylmethylamide], in series [4], the “Amount of pulmonary Hydroxypurine” value turned out to be 3.774 ± 0.504 μg/lung and the “Inhibition ratio (pulmonary hydroxypurine)” value was 40.6%. Further, half-maximal inhibition in series [1] (IC50) was put at 12.6 nM.

As to `N=C(N)Nc1ccc(OC(=O)c2cccc(S(N)(=O)=O)c2)cc1` [Methanesulfonate of compound 15, m-(p-guanidinophenoxycarbonyl)benzenesulfonamide], 192 nM corresponded to half-maximal inhibition in series [1] (IC50).

Take `N=C(N)Nc1ccc(C(=O)Oc2ccc(CC(=O)O)cc2)cc1` [Methanesulfonate of compound 3, p-(p-guanidinobenzoyloxy)phenylacetic acid]: half-maximal inhibition in series [1] (IC50) was put at 52.9 nM.

The compound `C=CCN(CC(=O)OCC)C(=O)/C(C)=C/c1ccc(C(=O)Oc2ccc(C(=N)N)cc2)cc1` [Methanesulfonate of compound 16, p-(p-amidinophenoxycarbonyl)-α-methylcinnamic acid N-allyl-N-ethoxycarbonylmethylamide] came in with an IC50 in series [1] of 1.4 nM. Besides, the LD50 in series [5] was 117 mg/kg. In series [6], the “Amount of hepatic Hydroxypurine” value stood at 896.5 ± 686.7 μg/liver and the “Inhibition ratio (hepatic hydroxypurine)” value amounted to 58.1%.

In series [1], `CN(C)C(=O)COC(=O)Cc1ccc(OC(=O)c2ccc(NC(=N)N)cc2)cc1` [Methanesulfonate of compound 2, N,N-ddimethylcarbamoylmethyl p-(p-guanidinobenzoyloxy)phenylacetate] showed an IC50 of 4.33 nM.

In the case of `CCOC(=O)c1ccc(OC(=O)CCCCCNC(=N)N)cc1` [Methanesulfonate of compound 1, p-ethoxycarbonylphenyl 6-guanidinohexanoate], the IC50 in series [1] is 30 nM.

For orientation: IC50 means the concentration that gives 50% inhibition. The low end stands for greater potency, the high end for weaker potency. As usually defined, the LD50 is the dose at which mortality reaches 50%.
